Test results reported in US20250195521A1 (Revolution Medicines, Inc., priority 2020, published 2025).
pEC50, pIC50: −log10 of the molar value. Where two headings read alike, the source gives them in different places.

Columns and labels:
[1] = biological target: KRAS G13C (Homo sapiens (Human), UniProt P01116+P62937, G13C); test: Ras-Raf disruption/FRET/MOA assay, KRAS G13C; type: biochemical
From the text: (§1) Disruption of B-Raf Ras-Binding Domain (BRAF^RBD) Interaction with K-Ras by Compounds of the Invention (Also Called a FRET Assay or an MOA Assay)
(§2) Note—The following protocol describes a procedure for monitoring disruption of K-Ras G12C (GMP-PNP) binding to BRAF^RBD by a compound of the invention. This protocol may also be executed substituting other Ras proteins or nucleotides, such as K-Ras G12D and K-Ras G13D.
(§3) The purpose of this biochemical assay was to measure the ability of test compounds to facilitate ternary complex formation between a nucleotide-loaded K-Ras isoform and Cyclophilin A; the resulting ternary complex disrupts binding to a BRAF^RBD construct, inhibiting K-Ras signaling through a RAF effector. Data is reported as IC50 values.
(§4) In assay buffer containing 25 mM HEPES pH 7.3, 0.002% Tween20, 0.1% BSA, 100 mM NaCl and 5 mM MgCl2, tagless Cyclophilin A, His6-K-Ras-GMPPNP, and GST-BRAF^RBD were combined in a 384-well assay plate at final concentrations of 25 μM, 12.5 nM, and 50 nM, respectively. Compound was present in plate wells as a 10-point 3-fold dilution series starting at a final concentration of 30 μM. After incubation at 25° C. for 3 hours, a mixture of anti-His Eu—W1024 and anti-GST allophycocyanin was then added to assay sample wells at final concentrations of 10 nM and 50 nM, respectively, and the reaction incubated for an additional 1.5 hours. […] Compounds that facilitate disruption of a K-Ras: RAF complex were identified as those eliciting a decrease in the TR-FRET ratio relative to DMSO control wells.

[2] = biological target: KRAS G12C (Homo sapiens (Human), UniProt P01116+P62937, G12C); test: Ras-Raf disruption/FRET/MOA assay, KRAS G12C; type: biochemical
KRAS G12C, sequence (P01116-2 other isoform, or with tags, fused parts or gaps G12C): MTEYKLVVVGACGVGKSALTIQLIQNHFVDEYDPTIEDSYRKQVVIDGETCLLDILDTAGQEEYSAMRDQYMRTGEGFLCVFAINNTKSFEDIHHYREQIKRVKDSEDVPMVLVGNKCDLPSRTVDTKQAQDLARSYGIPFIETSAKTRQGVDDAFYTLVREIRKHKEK
KRAS G12C, sequence (P62937 whole entry): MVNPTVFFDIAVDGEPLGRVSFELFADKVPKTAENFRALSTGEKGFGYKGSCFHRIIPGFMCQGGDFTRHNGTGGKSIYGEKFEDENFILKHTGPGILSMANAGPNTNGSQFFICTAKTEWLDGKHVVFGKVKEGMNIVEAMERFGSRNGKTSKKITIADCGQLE
From the text: as §1, §2, §3, §4

[3] = biological target: NRAS G12C (Homo sapiens (Human), UniProt P01111+P62937, G12C); test: Ras-Raf disruption/FRET/MOA assay, NRAS G12C; type: biochemical
NRAS G12C, sequence (P01111 whole entry G12C): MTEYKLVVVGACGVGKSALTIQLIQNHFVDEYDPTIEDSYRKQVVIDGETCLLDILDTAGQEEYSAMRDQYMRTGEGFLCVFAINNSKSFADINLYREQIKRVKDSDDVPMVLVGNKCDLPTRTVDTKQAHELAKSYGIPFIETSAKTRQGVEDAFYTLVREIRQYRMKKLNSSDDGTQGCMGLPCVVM
NRAS G12C, sequence (P62937 whole entry): as the sequence (P62937 whole entry) above
From the text: as §1, §2, §3, §4

[4] = system: AsPC-1 (K-Ras G12D); test: Potency assay: pERK; type: cell-based, human; settings: Homo sapiens, ASPC1, read-out: pERK EC50
Summary of the method: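 pERK decrease measured after 4 h compound treatment at 37 °C (10 three-fold dilutions, duplicate wells), by either fixed-cell In-Cell Western with DRAQ5 counterstain or AlphaLISA on lysates. Signal fitted against log concentration with a four-parameter model to give IC50.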

[5] = biological target: KRAS WT (Homo sapiens (Human), UniProt P01116+P62937); test: Ras-Raf disruption/FRET/MOA assay, KRAS WT; type: biochemical
KRAS WT, sequence (P01116 other isoform, or with tags, fused parts or gaps): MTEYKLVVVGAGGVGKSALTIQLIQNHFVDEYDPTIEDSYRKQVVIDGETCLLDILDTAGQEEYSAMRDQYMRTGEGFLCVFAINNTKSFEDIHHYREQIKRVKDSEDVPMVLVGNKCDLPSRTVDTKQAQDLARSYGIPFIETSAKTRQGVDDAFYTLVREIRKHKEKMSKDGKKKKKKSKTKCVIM
KRAS WT, sequence (P62937 whole entry): as the sequence (P62937 whole entry) above
From the text: as §1, §2, §3, §4

[6] = biological target: KRAS G12S (Homo sapiens (Human), UniProt P01116+P62937, G12S); test: Ras-Raf disruption/FRET/MOA assay, KRAS G12S; type: biochemical
KRAS G12S, sequence (P01116 other isoform, or with tags, fused parts or gaps G12S): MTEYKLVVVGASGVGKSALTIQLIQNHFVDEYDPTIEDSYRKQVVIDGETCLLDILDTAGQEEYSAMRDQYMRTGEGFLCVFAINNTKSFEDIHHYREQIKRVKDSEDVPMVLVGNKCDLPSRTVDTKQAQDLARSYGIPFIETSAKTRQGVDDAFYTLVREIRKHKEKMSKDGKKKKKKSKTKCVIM
KRAS G12S, sequence (P62937 whole entry): as the sequence (P62937 whole entry) above
From the text: as §1, §2, §3, §4

[7] = system: AsPC-1 (K-Ras G12D); test: CellTiter-Glo cell viability assay, AsPC-1; type: cell-based, human; settings: Homo sapiens, ASPC1, 120 h, read-out: AsPC-1 Cell Viability IC50
Summary of the method: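 Viability of K-Ras mutant lines is measured by ATP luminescence after five days of compound treatment. Percent of DMSO control is calculated and dose-response data are fitted with a four-parameter logistic equation.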

[8] = biological target: KRAS G12D (Homo sapiens (Human), UniProt P01116+P62937, G12D); test: Ras-Raf disruption/FRET/MOA assay, KRAS G12D; type: biochemical
KRAS G12D, sequence (P01116 other isoform, or with tags, fused parts or gaps G12D): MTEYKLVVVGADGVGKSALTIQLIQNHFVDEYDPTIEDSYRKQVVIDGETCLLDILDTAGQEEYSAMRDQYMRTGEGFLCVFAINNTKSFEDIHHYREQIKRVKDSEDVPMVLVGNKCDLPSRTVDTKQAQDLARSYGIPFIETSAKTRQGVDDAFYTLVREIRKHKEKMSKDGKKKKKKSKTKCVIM
KRAS G12D, sequence (P62937 whole entry): as the sequence (P62937 whole entry) above
From the text: as §1, §2, §3, §4

[9] = biological target: KRAS G12V (Homo sapiens (Human), UniProt P01116+P62937, G12V); test: Ras-Raf disruption/FRET/MOA assay, KRAS G12V; type: biochemical
KRAS G12V, sequence (P01116 other isoform, or with tags, fused parts or gaps G12V): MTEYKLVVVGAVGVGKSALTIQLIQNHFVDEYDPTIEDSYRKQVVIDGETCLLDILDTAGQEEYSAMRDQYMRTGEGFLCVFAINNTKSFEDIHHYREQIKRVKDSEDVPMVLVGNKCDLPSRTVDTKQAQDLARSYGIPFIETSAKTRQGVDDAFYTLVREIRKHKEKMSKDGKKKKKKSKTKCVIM
KRAS G12V, sequence (P62937 whole entry): as the sequence (P62937 whole entry) above
From the text: as §1, §2, §3, §4

[10] = biological target: KRAS G13D (Homo sapiens (Human), UniProt P01116+P62937, G13D); test: Ras-Raf disruption/FRET/MOA assay, KRAS G13D; type: biochemical
KRAS G13D, sequence (P01116 other isoform, or with tags, fused parts or gaps G13D): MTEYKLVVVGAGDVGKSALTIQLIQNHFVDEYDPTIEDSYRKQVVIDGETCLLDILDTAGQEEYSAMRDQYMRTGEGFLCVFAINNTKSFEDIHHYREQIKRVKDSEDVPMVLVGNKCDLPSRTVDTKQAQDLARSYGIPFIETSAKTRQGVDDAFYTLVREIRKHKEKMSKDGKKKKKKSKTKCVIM
KRAS G13D, sequence (P62937 whole entry): as the sequence (P62937 whole entry) above
From the text: as §1, §2, §3, §4

[11] = read-out: KRAS G12C FRET data IC50
[12] = read-out: NRAS G12C FRET data IC50

KRAS G13C, sequence (P01116 other isoform, or with tags, fused parts or gaps G13C): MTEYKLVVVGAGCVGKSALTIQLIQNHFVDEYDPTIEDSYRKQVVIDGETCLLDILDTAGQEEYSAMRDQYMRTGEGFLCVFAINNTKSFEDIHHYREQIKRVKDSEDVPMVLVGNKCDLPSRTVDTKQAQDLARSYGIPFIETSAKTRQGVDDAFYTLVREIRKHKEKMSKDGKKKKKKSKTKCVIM
KRAS G13C, sequence (P62937 whole entry, the tested form may be a part): as the sequence (P62937 whole entry) above

SMILES | pIC50 [1] | pIC50 [2] | pIC50 [3] | pEC50 [4] | pIC50 [5] | pIC50 [6] | pIC50 [7] | pIC50 [8] | pIC50 [9] | pIC50 [10] | pIC50 ([1]; read-out: KRAS G13C FRET IC50) | pIC50 [2, 11] | pIC50 [3, 12] | pIC50 ([5]; read-out: KRAS WT FRET IC50) | pIC50 ([6]; read-out: KRAS G12S FRET IC50) | pIC50 ([8]; read-out: KRAS G12D FRET IC50) | pIC50 ([9]; read-out: KRAS G12V FRET IC50) | pIC50 ([10]; read-out: KRAS G13D FRET IC50) | pIC50 ([7]; K-Ras G12D, 5-day treatment)
CCn1c(-c2cnccc2COC)c2c3cc(ccc31)-c1cc(O)cc(c1)C[C@H](NC(=O)[C@H](C(C)C)N(C)C(=O)CN(C)C(=O)[C@H]1N[C@@H]1c1ccc(OC)cc1)C(=O)N1CCC[C@H](N1)C(=O)OCC(C)(C)C2 [Example 97] | 7.00 to 8.00 | 7.00 to 8.00 | 7.00 to 8.00 | > 5.30 | 7.00 to 8.00 | 7.00 to 8.00 | 5.00 to 6.00 | 6.00 to 7.00 | 7.00 to 8.00 | 6.00 to 7.00 | – | – | – | – | – | – | – | – | –
CCn1c(-c2cnccc2COC)c2c3cc(ccc31)-c1cc(O)cc(c1)C[C@H](NC(=O)[C@H](C(C)C)N(C)C(=O)CN1C(=O)[C@H]3N[C@H]3C1=O)C(=O)N1CCC[C@H](N1)C(=O)OCC(C)(C)C2 [Example 98] | – | – | – | – | – | – | – | – | – | – | 6.00 to 7.00 | 6.00 to 7.00 | 5.00 to 6.00 | 6.00 to 7.00 | 5.00 to 6.00 | 5.00 to 6.00 | 5.00 to 6.00 | 5.00 to 6.00 | –
CCn1c(-c2cnccc2COC)c2c3cc(ccc31)-c1cc(O)cc(c1)C[C@H](NC(=O)[C@@H](CN(C)C(=O)[C@H]1CN1)C(C)C)C(=O)N1CCC[C@H](N1)C(=O)OCC(C)(C)C2 [Example 99] | – | – | – | – | – | – | – | – | – | – | < 5.00 | 5.00 to 6.00 | < 5.00 | < 5.00 | < 5.00 | < 5.00 | 5.00 to 6.00 | < 5.00 | –
CCn1c(-c2cnccc2COC)c2c3cc(ccc31)-c1cc(O)cc(c1)C[C@H](NC(=O)[C@H](C(C)C)N(C)C(=O)CN(C)C(=O)[C@H]1N[C@H]1C1CC1)C(=O)N1CCC[C@H](N1)C(=O)OCC(C)(C)C2 [Example 104] | 7.00 to 8.00 | 7.00 to 8.00 | 7.00 to 8.00 | > 5.30 | 6.00 to 7.00 | 7.00 to 8.00 | 5.00 to 6.00 | 6.00 to 7.00 | 6.00 to 7.00 | 6.00 to 7.00 | – | – | – | – | – | – | – | – | –
CCn1c(-c2cnccc2COC)c2c3cc(ccc31)-c1cc(O)cc(c1)C[C@H](NC(=O)[C@H](C(C)C)N(C)C(=O)CN(C)C(=O)[C@@H]1N[C@@H]1C)C(=O)N1CCC[C@H](N1)C(=O)OCC(C)(C)C2 [Example 105] | 7.00 to 8.00 | 7.00 to 8.00 | 7.00 to 8.00 | > 5.30 | 7.00 to 8.00 | 7.00 to 8.00 | 5.00 to 6.00 | 6.00 to 7.00 | 6.00 to 7.00 | 6.00 to 7.00 | – | – | – | – | – | – | – | – | –
CCn1c(-c2cccnc2[C@H](C)OC)c2c3cc(ccc31)-c1cc(O)cc(c1)C[C@H](NC(=O)[C@H](C(C)C)N1CCC3(CC(C(=O)[C@H]4CN4)C3)C1=O)C(=O)N1CCC[C@H](N1)C(=O)OCC(C)(C)C2 (some centres unmarked) [Example 115] | – | – | – | – | – | – | – | – | – | – | 7.00 to 8.00 | > 8.00 | > 8.00 | 7.00 to 8.00 | 6.00 to 7.00 | 6.00 to 7.00 | 6.00 to 7.00 | 7.00 to 8.00 | < 5.00
CCn1c(-c2cnccc2COC)c2c3cc(ccc31)-c1cc(O)cc(c1)C[C@H](NC(=O)[C@H](C(C)C)N(C)C(=O)CCNC1=NCCO1)C(=O)N1CCC[C@H](N1)C(=O)OCC(C)(C)C2 [Example 120] | – | – | – | – | – | – | – | – | – | – | 7.00 to 8.00 | 6.00 to 7.00 | 6.00 to 7.00 | 7.00 to 8.00 | 6.00 to 7.00 | 6.00 to 7.00 | 6.00 to 7.00 | 7.00 to 8.00 | –
CCn1c(-c2cccnc2[C@H](C)OC)c2c3cc(ccc31)-c1cccc(c1)C[C@H](NC(=O)[C@H](C(C)C)N1CC[C@@H](CN=C=NCCOC)C1)C(=O)N1CCC[C@H](N1)C(=O)OCC(C)(C)C2 [Example 121] | – | – | – | – | – | – | – | – | – | – | 6.00 to 7.00 | 6.00 to 7.00 | 6.00 to 7.00 | 6.00 to 7.00 | 5.00 to 6.00 | 5.00 to 6.00 | 5.00 to 6.00 | < 5.00 | –
